Experimental data: US6403618B1, “Agent and method for controlling angiogenesis” (Novactyl, Inc., priority 2000, dated 2002)

Tests used:
LoVo cells = experiment: Effects of picolinic acid on growth (total cell protein); type: cell-based
Procedure: (§1) Cells were plated at 1.5×10^5 cells/60-mm dish; 48 hours later, the medium was removed, and new media with or without 3 mM picolinic acid was added. Total cell protein was determined at the indicated times; each point is the average of triplicate measurements from 2 cultures.

WI-38 cells = experiment: as above; type: cell-based
Procedure: as §1

KB cells = experiment: as above; type: cell-based, human; details: 3 mM
Procedure: as §1

recombinant MPS-1 = recombinant MPS-1 (Homo sapiens, UniProt P42677); experiment: Zinc dependent binding of MPS-1 to DNA, gel shift assays and 65Zn; type: biochemical
Excerpt: MPS-1 is a ubiquitous tumor marker and cell growth stimulator and is described in detail in the inventor's U.S. Pat. No. Re.35,585 (No. 5,243,041). MPS-1 has one zinc finger domain of the type CCCC. […] This is detected by a change in the electrophoretic mobility of MPS-1 under non-denaturing conditions. These experiments indicate that picolinic acid and derivatives should remove zinc and denature various types of zinc finger or zinc ring proteins, whether known or heretofore undiscovered, including viral proteins such as nucleocapsid p7 proteins, as will be explained further. Furthermore, the inventor has determined that any chemical compound, whether known or heretofore undiscovered, that will remove the zinc (or other metal) and denature the proteins or that will form a ternary complex (protein-zinc-chelator) can be effective as a therapeutic agent or as an autologous immune response modulator, as will be discussed in greater detail below.

LD-50 = details: in vivo
[1] = Stability experiments as preservative in foods and on fresh fruits; type: physicochemical; details: in foods and on the surface of fresh fruits
Excerpt: (§2) The chelating agents of the present invention can be used as preservatives in perishable items such as foods and pharmaceuticals and to prevent fungal growth on the surface of fresh fruits. Presently chemicals such as citrashine orthophenilphenol thiabendazole are used. […] Microbial and fungal growth is inhibited while the food components are unaffected. The preservative of the present invention has less likelihood of toxicity or untoward reactions if ingested that the present, complex chemical antifungals. The preferred concentration of picolinic acid or acceptable derivative for this use is approximately 1% to approximately 99%.

[2] = tested on: Microbial and fungal growth; experiment: Preservative use in foods and on fresh fruits
Excerpt: as §2

[3] = tested on: papilloma virus ulcerative lesion; experiment: Treatment of ulcerative lesion with topical picolinic acid; type: in vivo, horse
Procedure: The lesion was progressive, with total loss of hair over the area. The diagnosis was viral disease, i.e. papilloma virus, complicated by fungal infection. The horse was treated with conventional local antibiotic and chemical therapies for about four months.
An aqueous solution of 10% picolinic acid in deionized water was applied every other day with a cotton swab over and around the lesion. The treatment continued for 45 days. The course of the regression of the viral lesion was as follows: […]

human papilloma viruses = experiment: Treatment of patients with papilloma virus skin lesions (common warts); type: in vivo
Procedure: Five patients ranging in age from 11 years to 52 years and each having at least one common wart induced by human papilloma viruses was treated with a topical preparation of picolinic acid. The topical preparation was either solution of 10% to 20% picolinic acid in deionized water or a topical ointment wherein 10% picolinic acid is incorporated into Aquaphor, i.e.1 g of picolinic acid in 10 g of Aquaphor.

recurrent plantar wart = experiment: Treatment of virus-induced plantar ulcer; type: in vivo, human
Procedure: A patient with recurrent plantar wart of about 2 cm in diameter was treated with topical picolinic acid. The patient, a pathologist who had difficulty walking because of the pain caused by the ulcer, had experimented with numerous medications for more than three months without any significant results prior to treatment with the picolinic acid. It is relevant to note that many plantar ulcers are transformed into malignant tumors.
The patient was treated with a solution of 10% picolinic acid in deionized water for one week. […] They then were treated with 10% picolinic acid in Aquaphor. The ointment was placed on the ulcer and on a patch. The patch was replaced every 24 hours.

[4] = tested on: metastatic breast cancer lesions; experiment: Treatment of metastatic disease to the skull from breast cancer; type: in vivo, human; details: topical 10% picolinic acid in Aquaphor, changed twice daily
Procedure: A person with metastatic breast cancer to the skin and bone of the skull was treated with a topical preparation of 10% picolinic acid in Aquaphor. The preparation was applied to the cancerous lesions and to a bandage and changed twice daily. The multiple cancer lesions were approximately 1 to 1.5 cm in diameter.

psoriasis = experiment: Treatment of proliferative skin disorders; type: in vivo, human; details: topical, preliminary information
Excerpt: Several patients suffering from proliferative skin disorders such as psoriasis have been included in a recent ongoing study of the anti-proliferative effects of topical picolinic acid. […] The patients may be treated with a topical application of approximately 5% to 20% picolinic acid, or a derivative thereof, in an absorption base. Alternatively, the patient may be treated with a solution containing approximately 5% to 20% picolinic acid, or derivative, in deionized water. The topical preparation may be applied twice a day or in an alternative pharmacologically acceptable regimen.

metastatic cancer = experiment: Systemic administration in metastatic cancer; type: in vivo; details: 00 gelatin capsules at 500 mg per capsule
Excerpt: A systemic preparation of a picolinic acid, its derivatives or analogs containing approximately 1% to 100% active ingredient may be administered orally, intravenously or by any acceptable route for the treatment of cancer and systemic infections. […] The preparation can be provided as a flavored oral solution. Likewise, an injectable form may be prepared.

normal cells = details: cited from earlier work
iron in the cells = details: cited from earlier work
transformed cells = details: cited from earlier work

Excerpt for actinic lesions: Two patients with actinic lesions (average of 5 lesions per patient, each lesion being approximately 3 mm to 5 mm in diameter) were diagnosed as requiring liquid nitrogen removal of the lesions. The patients received a daily application of 10% picolinic acid in Aquaphor.

**Q.** With `O=C(O)c1ccccn1` [picolinic acid, 2-Pyridine carboxylic acid] as the compound, how does the “growth of LoVo cells” value (LoVo cells; 3 mM picolinic acid, FIG. 2) read?
**A.** Its value is “inhibited”.

**Q.** And the cytotoxicity (LoVo cells; 3 mM, longer exposure 48-72 hours)?
**A.** Its cytotoxicity is “cytotoxicity and cell death was observed”.

**Q.** And the “growth of normal WI-38 cells” value (WI-38 cells; 3 mM picolinic acid, within 24 hours)?
**A.** The value was “inhibited”.

**Q.** And the toxic effects (WI-38 cells; 3 mM, up to 72 hours of treatment)?
**A.** The toxic effects was “no toxic effects”.

**Q.** And the “cytotoxic effects relative to LoVo cells” value (KB cells)?
**A.** Its value is “not as pronounced as in the case of LoVo cells”.

**Q.** What about the “growth and cytotoxicity compared with LoVo results” value (KB cells) of the same compound?
**A.** The value was “Equivalent results were obtained”.

**Q.** And the “removal of radioactive 65Zn from MPS-1” value (recombinant MPS-1; CCCC zinc finger, electrophoretic mobility, non-denaturing conditions)?
**A.** Its value is “remove radioactive ^65Zn from MPS-1”.

**Q.** What about the “zinc dependent binding of recombinant MPS-1 to DNA” value (recombinant MPS-1; gel shift assays) of the same compound?
**A.** The value was “inhibit”.

**Q.** And the LD-50 (LD-50)?
**A.** The LD-50 was 140 grams/70 Kg.

**Q.** What about the stability as preservative [1] of the same compound?
**A.** The stability as preservative was “highly stable”.

**Q.** And the “Microbial and fungal growth” value [2]?
**A.** The value was “inhibited”.

**Q.** And the lesion appearance ([3]; 10% aqueous solution topical every other day, after 10 days)?
**A.** Its lesion appearance is “central necrosis”.

**Q.** What about the “diameter of the lesion” value ([3]; 10% aqueous solution topical, after 20 days, 3 inch at start) of the same compound?
**A.** The value was “approximately 2 inches”.

**Q.** What about the “diameter of the lesion” value ([3]; 10% aqueous solution topical, after 30 days) of the same compound?
**A.** The value was “about 1 inch”.

**Q.** And the lesion outcome ([3]; 10% aqueous solution topical, at 45 days)?
**A.** The lesion outcome was “resolved with some scar tissue”.

**Q.** What about the recurrence ([3]; after three additional months) of the same compound?
**A.** Its recurrence is “without evidence of recurring disease”.

**Q.** And the “resolution with ointment versus solution” value (human papilloma viruses; 10% picolinic acid in Aquaphor)?
**A.** Its value is “faster resolution”.

**Q.** What about the wart appearance (human papilloma viruses; topical 10-20% solution or 10% Aquaphor ointment, after seven days) of the same compound?
**A.** Its wart appearance is “central necrosis of the wart occurred”.

**Q.** What about the “course of disease, 10% versus 20% solutions” value (human papilloma viruses; topical solution in deionized water) of the same compound?
**A.** The value was “no significant difference”.

**Q.** And the ulcer appearance (recurrent plantar wart; 10% solution in deionized water for one week)?
**A.** Its ulcer appearance is “Central necrosis was noted”.

**Q.** And the ulcer outcome (recurrent plantar wart; then 10% in Aquaphor with patch, after an additional three weeks)?
**A.** Its ulcer outcome is “resolved”.

**Q.** What about the “time until lesions resolved with scar tissue” value [4] of the same compound?
**A.** The value was “approximately 35 days”.

**Q.** And the regression of psoriasis (psoriasis)?
**A.** The regression of psoriasis was “significant effect in inducing regression”.

**Q.** And the “control of metastatic cancer” value (metastatic cancer)?
**A.** The value was “effective”.

**Q.** What about the lesion outcome (actinic lesions; daily 10% picolinic acid in Aquaphor, approximately three weeks, two patients) of the same compound?
**A.** Its lesion outcome is “completely cured”.

**Q.** And the “effects on normal skin” value (actinic lesions; in vivo)?
**A.** The value was “without any effects on normal skin”.

**Q.** What about the toxic effects (normal cells; longer exposure, most normal cells) of the same compound?
**A.** The toxic effects was “no toxic effects”.

**Q.** What about the cell cycle arrest (normal cells; short-term treatment) of the same compound?
**A.** The cell cycle arrest was “arrests normal cells in G1, (Go)”.

**Q.** And the “incorporation of iron into the cells” value (iron in the cells)?
**A.** The value was “inhibits”.

**Q.** What about the “removal of radioiron from the cells” value (iron in the cells) of the same compound?
**A.** The value was “effectively removes”.

**Q.** What about the cytotoxicity (transformed cells) of the same compound?
**A.** Its cytotoxicity is “cytotoxicity and cell death was observed”.

**Q.** And the cell cycle arrest (transformed cells; short-term treatment)?
**A.** The cell cycle arrest was “blocked in different phases of the cell cycle”.
